The structures appear in SMILES notation. “Also recorded” adds a separate entry of the source.

This is an account of results in US11040052B2, “Methods and pharmaceutical compositions for modulating autophagy in a subject in need thereof” (INSERM (INSTITUT NATIONAL DE LA SANTE ET DE LA RECHERCHE …, priority 2013, dated 2021).

Assay [1] concerns U2OS cells stably expressing GFP-LC3. Kind of assay: Autophagy in cultured cells: GFP-LC3 puncta formation and LC3 lipidation with or without bafilomycin A1. As to conditions: for autophagic flux (GFP-LC3 puncta formation, LC3 lipidation): cells kept in rich medium, presence and absence of BafA1; for abolition of the effects of AcCoA-replenishing agents on starvation-induced protein deacetylation and autophagy: starved cells plus DCA, DMKG or KIC; for starvation-induced autophagy (GFP-LC3 puncta, LC3 lipidation, autophagic flux): nutrient-depleted (starved) cells in vitro. In kind it is cell-based, human. As to the method:
U2OS, HeLa or H4 cells stably expressing GFP-LC3 were seeded in 96-well imaging plates (BD Falcon, Sparks, USA) 24 h before stimulation. Cells were treated with the indicated agents for 4 h. […] Images were analyzed for the presence of GFP-LC3 puncta in the cytoplasm by means of the BD Attovision software (BD Imaging Systems). Cell surfaces were segmented and divided into cytoplasmic and nuclear regions according to manufacturer standard proceedings. RB 2×2 and Marr-Hildreth algorithms were used to recognize cytoplasmic GFP-LC3 positive dots. Statistical analyses were implemented on the R software (http://www.r-project.org/). For quantitative analyses of protein acetylation, cell surfaces were segmented into cytoplasm and nuclei regions, and staining intensity of each individual cell was measured for statistical analysis.
Membranes were then sliced in different parts according to the molecular weight of the protein of interest to allow simultaneous detection of different antigens within the same experiment. Unspecific binding sites were saturated by incubating membranes for 1 h in 0.05% Tween 20 (v:v in TBS) supplemented with 5% non-fat powdered milk (w:v in TBS), followed by the overnight incubation with primary antibodies specific for acetylated-lysine, LC3, phospho-AMPK (Thr172), AMPK, phospho-ribosomal protein S6 kinase (Thr421/Ser424), ribosomal protein S6 kinase, or STQM/p62 (Santa Cruz Biotechnology). Development was performed with appropriate horseradish peroxidase (HRP)-labeled secondary antibodies (Southern Biotech, Birmingham, USA) plus the SuperSignal West Pico chemoluminescent substrate (Thermo Scientific-Pierce). An anti-glyceraldehyde-3-phosphate dehydrogenase antibody (Chemicon International, Temecula, USA) was used to control equal loading of lanes.
For immunoblotting, protein extracts obtained by cellular lysis via RIPA buffer were run on 4-12% Bis-Tris acrylamide (Invitrogen) and electrotransferred to […] PVDF membranes (Biorad, USA). Unspecific binding sites were saturated by incubating membranes for 1 h in 0.05% Tween 20 (v:v in TBS) supplemented with 5% non-fat powdered milk (w:v in TBS), followed by an overnight incubation with primary antibodies specific for, LC3, phospho-AMPK (Thr172), AMPK, phosphor-ACC (Ser79), ACC, phospho-ribosomal protein S6 kinase (Thr421/Ser424), ribosomal protein S6 kinase, or SQSTM/p62 (Abnova). Membranes were opportunely cut in order to allow simultaneous detection of different molecular weight proteins. Development was performed with horseradish peroxidase (HRP)-labeled secondary antibodies (Southern Biotech, Birmingham, USA) plus the SuperSignal West Pico chemo luminescent substrate (Thermo Scientific-Pierce). An anti-glyceraldehyde-3-phosphate dehydrogenase antibody (Abcam) and anti-Actin antibody (Abcam) were used to ensure equal loading of lanes. Quantification was performed by densitometry by means of Image J software.
U2OS and H4 cells stably expressing GFP-LC3 were seeded in 96-well or 384-well imaging plates (BD Falcon, Sparks, USA). 24 h before stimulation, ells were treated with the indicated agents for 6 hours in absence of lysososomal ATPase inhibitors and for 3 hours in presence of Bafilomycin A1. […] Images were analyzed for the detection of GFP-LC3 puncta in the cytoplasm by means of the BD Attovision software (BD Imaging Systems. Cellular regions of interest, cytoplasm and nucleus, were defined and segmented according to standard proceedings. RB 2×2 and Marr-Hildreth algorithms were employed to allow the detection of GFP LC3 puncta. Statistical analyses were conducted using the R and Prism softwares (http://www.r-project.org/). For quantitative analyses of protein acetylation, cell surfaces were segmented intocytoplasmic and nucleic regions, and staining intensity of each individual cell was measured for statistical analysis.

The subject of assay [2] is cytoplasmic protein acetylation. Kind of assay: Immunofluorescence of cytoplasmic acetyl-lysine-containing proteins. The format is cell-based, human. The following applies: for cytoplasmic protein acetylation: cells kept in rich medium; for cytoplasmic protein acetylation in starved cells: nutrient-depleted (starved) cells in vitro. The protocol: Cells were fixed with 4% PFA for 15 min at room temperature, and permeabilized with 0.1% Triton X-100 for 10 min, except for staining of cytoplasmic acetyl-lysine-containing proteins, in which any permeabilization step further than PFA fixation was avoided. Non-specific binding sites were blocked with 5% bovine serum in PBS, followed by staining with primary antibodies overnight at 4° C. Development was carried out with appropriate AlexaFluor™ conjugates (Molecular Probes-Invitrogen). In the case of cytoplasmic acetyl-lysine staining, an additional step of blocking using anti-acetylated-tubulin antibody (1:200) was applied. Ten μM Hoechst 33342 (Molecular Probes-Invitrogen) was employed for nuclear counterstaining. Fluorescence and confocal fluorescence microscopy assessments were performed on an IRE2 microscope (Lcica Microsystems) equipped with a DC300F camera and with an LSM 510 microscope (Carl Zeiss, Jena, Germany), respectively.
U2OS, HeLa or H4 cells stably expressing GFP-LC3 were seeded in 96-well imaging plates (BD Falcon, Sparks, USA) 24 h before stimulation. Cells were treated with the indicated agents for 4 h. Subsequently, cells were fixed with 4% PFA and counterstained with 10 μM Hoechst 33342. Images were acquired using a BD pathway 855 automated microscope (BD Imaging Systems, San Jose, USA) equipped with a 40× objective (Olympus, Center Valley, USA) coupled to a robotized Twister II plate handler (Caliper Life Sciences, Hopkinton, USA). Images were analyzed for the presence of GFP-LC3 puncta in the cytoplasm by means of the BD Attovision software (BD Imaging Systems). Cell surfaces were segmented and divided into cytoplasmic and nuclear regions according to manufacturer standard proceedings. RB 2×2 and Marr-Hildreth algorithms were used to recognize cytoplasmic GFP-LC3 positive dots. Statistical analyses were implemented on the R software (http://www.r-project.org/). For quantitative analyses of protein acetylation, cell surfaces were segmented into cytoplasm and nuclei regions, and staining intensity of each individual cell was measured for statistical analysis.
Cells were fixed with 4% PFA for 15 min at room temperature, and permeabilized with 0.1% Triton X-100 for 10 min. For cytoplasmic Acetyl Lysine staining, we proceeded as described in 35. Non-specific binding sites were blocked with 5% bovine serum albumin in PBS, followed by incubation with primary antibodies overnight at 4° C. After 1 hour incubation, appropriate Alexa-conjugated Fluorophores (Invitrogen) were used for antigen detection. Ten μM Hoechst 33342 (Molecular Probes-Invitrogen, Eugene, USA) was employed for nuclear counterstaining Fluorescence wide-field and confocal microscopyassessments were performed on an DM IRE2 microscope (Leica Microsystems, Wetzlar, Germany) equipped with a DC300F camera and with an LSM 510 microscope (Carl Zeiss, Jena, Germany), respectively.
U2OS and H4 cells stably expressing GFP-LC3 were seeded in 96-well or 384-well imaging plates (BD Falcon, Sparks, USA). 24 h before stimulation, ells were treated with the indicated agents for 6 hours in absence of lysososomal ATPase inhibitors and for 3 hours in presence of Bafilomycin A1. Subsequently, cells were fixed with 4% PFA and counterstained with 10 μM Hoechst 33342. Images were acquired using a BD pathway 855 automated microscope (BD Imaging Systems, San Jose, USA) equipped with a 40× objective (Olympus, Center Valley, USA) coupled to a robotized Twister II plate handler (Caliper Life Sciences, Hopkinton, USA). […]

With `O=C(O)c1cccc(C(=O)O)c1C(=O)O` [BTC, 1,2,3-benzenetricarboxylate], in assay [1], the “autophagic flux (GFP-LC3 puncta formation, LC3 lipidation)” value is given as “increased autophagic flux; also recorded: induced the triad”; the “abolition of the effects of AcCoA-replenishing agents on starvation-induced protein deacetylation and autophagy” value (“abolition” for short) was “cancelled the inhibitory effects; also recorded: abolished both the protein hyperacetylation and autophagy suppression”. The cytoplasmic protein acetylation result in assay [2] is “reduced both AcCoA levels (A) and cytoplasmic protein acetylation; also recorded: protein deacetylation”.
Consider `COC(=O)CCC(=O)C(=O)OC` [DMKG, dimethyl-α-ketoglutarate], for which the “starvation-induced autophagy (GFP-LC3 puncta, LC3 lipidation, autophagic flux)” value (from here on “starvation-induced autophagy”) in assay [1] is recorded as “abolished starvation-induced autophagy; also recorded: low autophagy”. Also, the “cytoplasmic protein acetylation in starved cells” value in assay [2] is “increased cellular AcCoA levels (E) and cytoplasmic protein acetylation; also recorded: maintained high AcCoA and cytoplasmic acetylation levels”.
Consider `O=C(O)CC(O)(C(=O)O)C(O)C(=O)O` (stereo not shown) [HC, hydroxycitrate], for which, in assay [1], the “autophagic flux (GFP-LC3 puncta formation, LC3 lipidation)” value was “increased autophagic flux; also recorded: induce autophagic flux; also recorded: strongly stimulated autophagy both in vitro and in vivo; also recorded: stimulated autophagic flux in cultured cancer cells”. Also, in assay [1], the “abolition” value is “cancelled the inhibitory effects; also recorded: abolished both the protein hyperacetylation and autophagy suppression”. Further, the cytoplasmic protein acetylation result was “reduced both AcCoA levels (E, I) and cytoplasmic protein acetylation; also recorded: induced cytosolic protein deacetylation; also recorded: induced cytoplasmic protein deacetylation” in assay [2]; “reduces cytoplasmic; also recorded: reduced cytoplasmic protein acetylation” in assay [2] (listed as Hydroxycitrate).
Turning to `CC(C)CC(=O)C(=O)O` [KIC, ketoisocaproic acid], the “starvation-induced autophagy” value in assay [1] was “inhibition of starvation induced autophagy; also recorded: inhibited the starvation-induced increase in autophagic flux; also recorded: more efficient than leucine in suppressing autophagy”. Besides, the “cytoplasmic protein acetylation in starved cells” value in assay [2] was “increase in AcCoA levels (A) and cytoplasmic protein acetylation; also recorded: sufficient to avoid AcCoA depletion and protein deacetylation”.
Consider `O=C(O)CCCCC1CCSS1` (stereo not shown) [LA, lipoic acid], for which the “starvation-induced autophagy” value in assay [1] was “abolished starvation-induced autophagy; also recorded: blunted starvation-induced mTORC1 inhibition, AMPK activation and autophagy flux”. Further, in assay [2], the “cytoplasmic protein acetylation in starved cells” value was “increased both cellular AcCoA levels (K) and cytoplasmic protein acetylation; also recorded: maintain high AcCoA and cytoplasmic acetylation levels”.
With `N#CC(=Cc1cn(-c2ccccc2)c2ccccc12)C(=O)O` [UK5099, 2-Cyano-3-(1-phenyl-1H-indol-3-yl)-2-propenoic acid], in assay [1], the “autophagic flux (GFP-LC3 puncta formation, LC3 lipidation)” value was “increased autophagic flux; also recorded: induction of GFP-LC3 puncta and lipidation of endogenous LC3-I to LC3-II; also recorded: induction of GFP-LC3 puncta, and lipidation of endogenous LC3-I to LC3-II”. Further, the cytoplasmic protein acetylation entry in assay [2] is “reduced both AcCoA levels (A, E) and cytoplasmic protein acetylation; also recorded: deacetylation of cytoplasmic proteins”.
For the compound `CC1=NN(c2ccc(C(=O)O)cc2)C(=O)/C1=C\c1ccc(-c2cc(C)c(C)cc2[N+](=O)[O-])o1` [c646], in assay [1], the “autophagic flux (GFP-LC3 puncta formation, LC3 lipidation)” value was “induced autophagy both in vitro, in cultured cells, and in vivo, in mice”; the “abolition” value is reported as “precluded the inhibitory effect of AcCoA-replenishing agents on starvation-induced autophagy”.
In the case of `CC(C)C[C@H](N)C(=O)O` [leucine], in assay [1], the “starvation-induced autophagy” value is “suppression of autophagy”. In addition, in assay [2], the “cytoplasmic protein acetylation in starved cells” value is “sufficient to maintain high AcCoA levels and cytoplasmic protein acetylation”.
